# Assay results as given in US20100227896A1, “USE OF VITAMIN PP COMPOUNDS” (ASTELLAS DEUTSCHLAND GMBH, priority 1998, published 2010).
# Read-outs that look alike come from different tables or passages of the source.
# Key:
# [1] = system: THP-1 cells; assay: Growth inhibition of THP-1 human leukaemia cells (WST-1 reagent, four days incubation); assay type: cell-based; conditions: for IC50: Homo sapiens; for effect on the growth-inhibiting effect of K22.097: THP-1 cells, summary of Table 1
# Description: THP-1 cells derived from a human monocytic leukaemia plated at a density of 200,000 cells/ml in 96-well plastic dishes. Cultivation occurred in RPMI 1640 nutrient medium with 10% foetal calf serum (FCS) in a tissue culture incubator with a gas mixture of 5% CO2 and 95% air at a temperature of 37° C. For the individual concentrations and the controls without test substances as well as for the background with nutrient medium but without cells, three-fold batches were done for each. After four days of substance incubation 20 μl WST-1 reagent (Boehringer Mannheim) was respectfully pipetted in each individual well. After 30 to 60 minute incubation in the tissue culture incubator at 37° C. and 5% CO2, the light extinction was measured in an ELISA reader at 450 nm wave length. The backgrounds were each subtracted from the typical measured valves. (The IC50-values (defined as that concentration in which the cell growth was inhibited by 50%) was taken from the dose-response curves and given as a comparative measurement for the activity of the test compounds.
# Furthermore, the anti-tumor substance Nr.159 with the internal label K22.175 according to the publication PCT/EP97/03245=WO97/48696 in the form of N-[4-(1-benzoylpiperidin-4-yl)-butyl]-3-(pyridin-3-yl)-acrylamide synthesized by the applicant was included in the experimental examinations. The results obtained therefrom confirm the above described finding on the useful effect according to the invention of the vitamin PP compounds.
# [2] = system: lymphocytes; assay: Vitality of freshly isolated spleen lymphocytes (flow cytometry, propidium iodide / 3,3'-dihexyloxacarbocyanin iodide, 2 days); assay type: cell-based, Swiss mouse; conditions: Mus musculus, Lymphocyte
# Text: Many cytostatic agents and radiation therapies as well have a cytcotoxic effect not only on tumor cells but also on the blood cell system. This leads to a weakening of the immune defence which can lead to life threatening infections. In addition, this can result in a so-called tumor lyse syndrome which can, lead to the death of the patient by the relatively quick death of large cell masses. In order to test the possibility for a therapeutical use of nicotinic acid and/or nicotinamide for preventing such life threatening conditions by massive cell death, the effect of the substance was tested on freshly isolated lymphocytes as follows:
# The spleen of a Swiss mouse served as a lymphocyte source.
# The lymphocyte population was isolated from the spleen cell suspension over a ficoll gradient and taken up in IMEM-ZO culture medium with 0,1% dextran 70,000 and 2% foetal calf serum. […] Subsequently, 10,000 cells per each sample were measured on a flow-through cytometer and the percentage amount of vital cells in the population was determined. By means of the dose-response curves, IC50-values were calculated which were also employed in the following Tables for the characterization of the individual substances: […]
# [3] = system: Cryptic cells of the large intestine; assay: Growth/vitality of primary cryptic cells of the large intestine (crystal violet, MTT-test, 4 days treatment); assay type: cell-based
# Text: Cryptic cells of the large intestine were isolated according to the method of Booth et al. (1995) with slight modifications. The removed large intestine was cut into pieces, the parts were finally cut after several-fold washing and digested with collagenase and dispase. Subsequently, the larger tissue pieces remaining in the suspension were sedimented, the supernatant was decanted and stored. The pellet was digested again under vigorous shaking with medium in order to release additional cryptic cells. After sedimentation, the supernatant was poured off again, combined with the first fraction and the cryptic cells were centrifuged at 50×g. After a further washing step, the centrifuge cryptic cells were suspended in culture medium and seeded at a density of 800 cells per well in 24-well-cultured dishes which were previously coated with collagen. The cells were incubated at 37° C. in a saturated water vapour atmosphere with 92.5% air and 7.5% CO2. […]
# The growth of the culture was photometrically quantified after staining with crystal violet as a measure for the cell number and the vitality of the cells was determined with the MTT-test whose reaction depends on living cells with active mitochondria. Based on dose response curves, the IC50-values were calculated which are also used in the following Table 3 for characterization of the individual substance activity: […]
# [4] = system: NMRI mice
# Description: Parallel to this, 500 mg/kg nicotinamide was simultaneously intraperitoneally administered each to the individual dosage groups. 7 days after the beginning of treatment, the blood picture of the individual animals was examined.
smiles,measurement,setting,value
"O=C(CCc1cccnc1)NCCCCC1CCN(C(c2ccccc2)c2ccccc2)CC1 [K22.097, N-[4-(1-diphenylmethylpiperidin-4-yl)-butyl]-3-(pyridin-3-yl)-propionamide]",IC50,"[1]; THP-1, read-out: IC50-Value for K22.097, THP-1 cells, + 0.1 mM nicotinic acid",> 10000 nM
same,IC50,"[1]; THP-1, read-out: IC50-Value for K22.097, THP-1 cells, + 1 mM nicotinamide",> 10000 nM
same,IC50,"[1]; THP-1, read-out: IC50-Value for K22.097, THP-1 cells, K22.097 alone",10 nM
same,IC50,"[2]; read-out: IC50-Value for K22.097, mouse spleen lymphocytes, + 10 mM nicotinamide",> 1000 nM
same,IC50,"[2]; read-out: IC50-Value for K22.097, mouse spleen lymphocytes, K22.097 alone",1 nM
same,IC50,"[3]; read-out: IC50-Value for K22.097, primary intestine cryptic cells, + 1 mM nicotinamide",> 10000 nM
same,IC50,"[3]; read-out: IC50-Value for K22.097, primary intestine cryptic cells, K22.097 alone",100 nM
same,Leukocyte number,"[4]; 2 × 100 mg/kg K22.097 orally + 2 × 500 mg/kg nicotinamide intraperitoneally, day 7","6,900 per μl"
same,Leukocyte number,"[4]; 2 × 100 mg/kg K22.097 orally over 4 days, blood picture 7 days after beginning of treatment","1,100 per μl"
same,Leukocyte number,"[4]; 2 × 120 mg/kg K22.097 orally + 2 × 500 mg/kg nicotinamide intraperitoneally, day 7","5,900 per μl"
same,Leukocyte number,"[4]; 2 × 120 mg/kg K22.097 orally over 4 days, blood picture 7 days after beginning of treatment",500 per μl
"O=C(O)c1cccnc1 [nicotinic acid, reference compound]",effect on the growth-inhibiting effect of K22.097,[1],abrogated
"O=C(C=Cc1cccnc1)NCCCCC1CCN(C(=O)c2ccccc2)CC1 [K22.175, N-[4-(1-benzoylpiperidin-4-yl)-butyl]-3-(pyridin-3-yl)-acrylamide]",IC50,"[1]; THP-1, THP-1 cells, + 0.1 mM nicotinic acid, read-out: IC50-Value for K22.175",> 30 nM
same,IC50,"[1]; THP-1, THP-1 cells, + 1 mM nicotinamide, read-out: IC50-Value for K22.175",> 30 nM
same,IC50,"[1]; THP-1, THP-1 cells, K22.175 alone, read-out: IC50-Value for K22.175",0.5 nM
"NC(=O)c1cccnc1 [nicotinamide, reference compound]",effect on the growth-inhibiting effect of K22.097,[1],abrogated
same,Leukocyte number,"[4]; mouse, in vivo, ip, 500 mg/kg","4,800 per μl"
